The values below come from patent US20110112133A1, “DIHYDRO PYRROLOQUINOLINE DERIVATIVES” (Takeda Pharmaceutical Company Limited, priority 2009, published 2011).

Assay [1] concerns the target T1, hNK2 receptor (Homo sapiens, UniProt P21452).
T1 construct: host or cells: CHO cells
T1 sequence (P21452 1-398): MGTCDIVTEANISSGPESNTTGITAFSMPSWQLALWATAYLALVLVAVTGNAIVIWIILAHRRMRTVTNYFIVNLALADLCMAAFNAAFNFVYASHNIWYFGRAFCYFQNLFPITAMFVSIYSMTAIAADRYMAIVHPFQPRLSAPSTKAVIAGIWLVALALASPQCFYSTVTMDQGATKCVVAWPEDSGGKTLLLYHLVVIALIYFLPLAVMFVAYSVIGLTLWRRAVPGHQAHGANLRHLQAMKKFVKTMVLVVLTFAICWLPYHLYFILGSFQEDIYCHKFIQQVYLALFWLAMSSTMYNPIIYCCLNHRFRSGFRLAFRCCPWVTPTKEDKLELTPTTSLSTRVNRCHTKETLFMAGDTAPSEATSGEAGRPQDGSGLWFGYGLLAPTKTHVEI
The assay can be described thus: Radioligand receptor binding inhibitory activity using membrane fraction of hNK2 receptor-expressing CHO cell ([125I]-NKA). As to conditions: for inhibition at 1 µM / inhibition at 0.1 µM / inhibition at 0.01 µM / inhibition at 10 µM: read-out: hNK2 receptor binding inhibitory activity (inhibitory rate (%)); for inhibition at 10 µM: test compound 10^−5 M. As for the experimental part: Radioligand Receptor Binding Inhibitory Activity Using Membrane Fraction of hNK2 Receptor-Expressing CHO Cell
hNK2 receptor-expressing CHO cells (produced by EUROSCREEN) were cultured in a flask placed HAM-F12 medium containing 400 μg/mL Geneticin, 100 U/mL penicillin, 100 μg/mL streptomycin and 10% inactivated serum. The medium was removed and adhered cells were washed with PBS, and PBS containing 5 mM EDTA was added to detach the cells from the flask. The cells were recovered by centrifugation, suspended in suspending buffer A (15 mM Tris-HCl (pH 7.5), 12.5 mM MgCl2, 0.3 mM EDTA, 1 mM EGTA (Ethylene Glycol Bis(beta-aminoethylether)-N,N,N,N-tetraacetic Acid)), disrupted by POLYTRON homogenizer (manufactured by KINEMATICA) and centrifuged at 850×g for 10 min at 4° C. The supernatant was recovered and ultracentrifuged at 142000×g for 60 min at 4° C. The precipitated fraction was suspended in suspending buffer B (7.5 mM Tris-HCl (pH 7.5), 12.5 mM MgCl2, 0.3 mM EDTA, 1 mM EGTA, 250 mM sucrose), and cryopreserved (at −80° C.) as a membrane fraction preparation of hNK2 receptor-expressing CHO cell.
The radioligand receptor binding assay was performed in a 96 well microassay plate format with a final volume of 200 μL.
An assay buffer (50 μL, 50 mM Tris-HCl (pH 7.4), 0.02% bovine serum albumin, 2 μg/mL chymostatin, 40 μg/mL bacitracin, 40 μg/mL APMSF, 3 mM MnCl2) was added to a 96 well microassay plate. Thereto was added 50 μL of the above-mentioned cryopreserved membrane fraction preparation suspended in the assay buffer (20 μg/mL). An assay buffer (50 μL) containing 2% dimethyl sulfoxide was added to examine the total binding, 4 μM unlabeled NKA (produced by Peptide Institute, Inc.) solution (50 μL) diluted with an assay buffer containing 2% dimethyl sulfoxide was added to examine non-specific binding, and a test compound diluted with an assay buffer (50 μL, containing 2% dimethyl sulfoxide) was added. Furthermore, […] [^125I]-NKA (produced by NEN) solution (50 μL) was added to each well.
After reaction at room temperature for 30 min, using a cell harvester (manufactured by PerkinElmer), the reaction was stopped by rapid filtration on a unifilter plate (GF/C) (manufactured by PerkinElmer), which had been immersed in 0.3% aqueous polyethyleneimine solution for one day, and the cells were washed 10 times with 50 mM Tris-HCl (pH 7.4) buffer (250 μL) containing 0.02% bovine serum albumin. The GF/C filter plate was dried and 20 μL of MicroScinti-0 (manufactured by PerkinElmer) was added to each well and the radioactivity was measured by TopCount (manufactured by PerkinElmer).
Specific binding is shown by the value obtained by subtracting non-specific binding from the total binding. The binding inhibitory activity of the test compound is shown by the ratio of the value obtained by subtracting the measured value associated with the addition of the test compound from the total binding, to the value of the specific binding.

The target in assay [2] is T1, hNK2 receptor. Description: Antagonistic activity determined by intracellular calcium concentration using neurokinin A and hNK2 receptor-expressing CHO cell (FLIPR). The format is cell-based. As to conditions: neurokinin A stimulation; for inhibition at 10 µM / inhibition at 1 µM / inhibition at 0.1 µM / inhibition at 0.01 µM: CHO, read-out: Antagonistic activity (inhibitory rate (%)). The method, then: Evaluation of Antagonistic Activity Determined by Intracellular Calcium Concentration Using Test Compound, Neurokinin A and hNK2 Receptor-Expressing CHO Cell
hNK2 receptor-expressing CHO cells were seeded on a 384 well plate at 7.5×10^3 cells/well and cultured for 24 hr. Then the medium was removed, 1× recording medium (30 μL, Calcium kit II-Fluo 4: DOJINDO LABORATORIES, Japan) containing prepared 2.5 μg/mL Fluo 4, 2.5 mM probenecid and 20 mM HEPES was added, and the cells were cultured in CO2 incubator (37° C., 5% CO2) for 1 hr. A test compound diluted with 1× recording medium containing 0.05% bovine serum albumin and 20 mM HEPES (10 μL, 0.6% dimethyl sulfoxide) was added. Thereafter, 3 nM neurokinin A solution (20 μL) was added, and changes in the intracellular calcium concentration were measured by FLIPR (Molecular Devices Corporation, Japan). The inhibitory rate of the test compound was calculated with a reaction using DMSO alone and free of the compound as […] and a reaction using 1 nM NKA as 0% inhibition.

For the compound `Cc1ccn(-c2ccc(C(=O)N[C@@H]3CCC(F)(F)C[C@@H]3C(=O)N3CCc4c(-c5ncc[nH]5)nc5ccccc5c43)cc2)n1` [Example 1, N-[(1R,2S)-4,4-difluoro-2-{[4-(1H-imidazol-2-yl)-2,3-dihydro-1H-pyrrolo[3,2-c]quinolin-1-yl]carbonyl}cyclohexyl]-4-(3-methyl-1H-pyrazol-1-yl)benzamide], the “hNK2 receptor binding inhibitory activity (inhibitory rate (%))” value at hNK2 receptor [1] (test compound 10^−6 M) is given as 101.1%; at hNK2 receptor [1] (test compound 10^−7 M), 100.5%; at hNK2 receptor [1] (test compound 10^−8 M), 99.7%. On hNK2 receptor [2] (test compound 10^−5 M), the inhibition at 10 µM turned out to be 88.3%. On hNK2 receptor [2] (test compound 10^−6 M), the inhibition at 1 µM turned out to be 102%. Besides, the inhibition at 0.1 µM at hNK2 receptor [2] (test compound 10^−7 M) was found to be 102%. The inhibition at 0.01 µM on hNK2 receptor [2] (test compound 10^−8 M) stood at 100%.
`Br.Cc1ccn(-c2ccc(C(=O)N[C@@H]3CCC(F)(F)C[C@@H]3C(=O)N3CCc4c(-c5ncc[nH]5)nc5ccccc5c43)cc2)n1` [Example 2, N-[(1R,2S)-4,4-difluoro-2-{[4-(1H-imidazol-2-yl)-2,3-dihydro-1H-pyrrolo[3,2-c]quinolin-1-yl]carbonyl}cyclohexyl]-4-(3-methyl-1H-pyrazol-1-yl)benzamide hydrobromide]: the entries for the “hNK2 receptor binding inhibitory activity (inhibitory rate (%))” value on hNK2 receptor [1] (test compound 10^−6 M), on hNK2 receptor [1] (test compound 10^−7 M) and on hNK2 receptor [1] (test compound 10^−8 M) were 100.7%, 99.7% and 99.6%, respectively. Moreover, the “Antagonistic activity (inhibitory rate (%))” value on hNK2 receptor [2] (test compound 10^−5 M) was found to be 88.8%; on hNK2 receptor [2] (test compound 10^−6 M), 102.2%; on hNK2 receptor [2] (test compound 10^−7 M) it was 102.8%; on hNK2 receptor [2] (test compound 10^−8 M), 100.4%.
On to `Cc1ccn(-c2ccc(C(=O)N[C@@H]3CCC(F)(F)C[C@@H]3C(=O)N3CCc4c(-c5ncc[nH]5)nc5ccccc5c43)cc2)n1.Cl` [Example 3, N-[(1R,2S)-4,4-difluoro-2-{(4-(1H-imidazol-2-yl)-2,3-dihydro-1H-pyrrolo[3,2-c]quinolin-1-yl]carbonyl}cyclohexyl]-4-(3-methyl-1H-pyrazol-1-yl)benzamide hydrochloride], for which the “hNK2 receptor binding inhibitory activity (inhibitory rate (%))” value at hNK2 receptor [1] (test compound 10^−6 M, hydrochloride) worked out at 101.7%; at hNK2 receptor [1] (test compound 10^−7 M), 101.4%; on hNK2 receptor [1] (test compound 10^−8 M, hydrochloride), 100.3%. Further, the “Antagonistic activity (inhibitory rate (%))” value at hNK2 receptor [2] (test compound 10^−5 M) turned out to be 86.8%; at hNK2 receptor [2] (test compound 10^−6 M), 102.5%; at hNK2 receptor [2] (test compound 10^−7 M), 102.9%; at hNK2 receptor [2] (test compound 10^−8 M) it was 100.5%.
As to `Cc1ccn(-c2ccc(C(=O)N[C@@H]3CCC(F)(F)C[C@@H]3C(=O)N3CCc4c(-c5nccn5COC(=O)C(C)(C)C)nc5ccccc5c43)cc2)n1` [Example 4, [2-(1-{[(1S,2R)-5,5-difluoro-2-({[4-(3-methyl-1H-pyrazol-1-yl)phenyl]carbonyl}amino)cyclohexyl]carbonyl)-2,3-dihydro-1H-pyrrolo[3,2-c]quinolin-4-yl)-1H-imidazol-1-yl]methyl 2,2-dimethylpropanoate], the inhibition at 1 µM was 80.1% on hNK2 receptor [1] (test compound 10^−6 M) and 98.7% on hNK2 receptor [2] (test compound 10^−6 M). Further, the inhibition at 0.1 µM at hNK2 receptor [1] (test compound 10^−7 M) stood at 31.6%; at hNK2 receptor [2] (test compound 10^−7 M), 39.5%. Also, the inhibition at 0.01 µM at hNK2 receptor [1] (test compound 10^−8 M) is -7.5%; at hNK2 receptor [2] (test compound 10^−8 M) it was -6.8%. In addition, the inhibition at 10 µM on hNK2 receptor [2] (test compound 10^−5 M) came to 91%.
In the case of `Cc1ccn(-c2ccc(C(=O)N[C@@H]3CCC(F)(F)C[C@@H]3C(=O)N3CCc4c(-c5ncc[nH]5)nc5ccc(F)cc5c43)cc2)n1` [Example 5, N-[(1R,2S)-4,4-difluoro-2-{[8-fluoro-4-(1H-imidazol-2-yl)-2,3-dihydro-1H-pyrrolo[3,2-c]quinolin-1-yl]carbonyl}cyclohexyl]-4-(3-methyl-1H-pyrazol-1-yl)benzamide], the “hNK2 receptor binding inhibitory activity (inhibitory rate (%))” value on hNK2 receptor [1] (test compound 10^−6 M) is 100.8%; at hNK2 receptor [1] (test compound 10^−7 M) it was 99.8%; on hNK2 receptor [1] (test compound 10^−8 M) it was 96.6%. In addition, at hNK2 receptor [2] (test compound 10^−5 M), the inhibition at 10 µM is 87.1%. Besides, the inhibition at 1 µM on hNK2 receptor [2] (test compound 10^−6 M) came out at 100%. Further, on hNK2 receptor [2] (test compound 10^−7 M), the inhibition at 0.1 µM was 102%. On hNK2 receptor [2] (test compound 10^−8 M), the inhibition at 0.01 µM is 100%.
With `Cc1ccn(-c2ccc(C(=O)N[C@@H]3CCC(F)(F)C[C@@H]3C(=O)N3CCc4c(-c5ccsc5)nc5ccccc5c43)cc2)n1` [Example 7, N-[(1R,2S)-4,4-difluoro-2-{(4-thiophen-3-yl-2,3-dihydro-1H-pyrrolo[3,2-c]quinolin-1-yl)carbonyl]cyclohexyl}-4-(3-methyl-1H-pyrazol-1-yl)benzamide], the inhibition at 10 µM at hNK2 receptor [1] came out at 102%; at hNK2 receptor [2] (test compound 10^−5 M), 83.7%. Besides, the inhibition at 1 µM was determined as 100% on hNK2 receptor [1] (test compound 10^−6 M) and 99.3% on hNK2 receptor [2] (test compound 10^−6 M). Further, the inhibition at 0.1 µM at hNK2 receptor [1] (test compound 10^−7 M) and on hNK2 receptor [2] (test compound 10^−7 M) was 100% in each case. The inhibition at 0.01 µM at hNK2 receptor [1] (test compound 10^−8 M) was 98.8%; at hNK2 receptor [2] (test compound 10^−8 M), 98.6%.
As for `Cc1ccn(-c2ccc(C(=O)N[C@@H]3CCC(F)(F)C[C@@H]3C(=O)N3CCc4c(-c5ccccc5)nc5ccc(F)cc5c43)cc2)n1` [Example 9, N-{(1R,2S)-4,4-difluoro-2-[(8-fluoro-4-phenyl-2,3-dihydro-1H-pyrrolo[3,2-c]quinolin-1-yl)carbonyl]cyclohexyl}-4-(3-methyl-1H-pyrazol-1-yl)benzamide], the inhibition at 10 µM at hNK2 receptor [1] was 99.1%; at hNK2 receptor [2] (test compound 10^−5 M) it was 84.1%. Also, the inhibition at 1 µM at hNK2 receptor [1] (test compound 10^−6 M) came out at 101%; at hNK2 receptor [2] (test compound 10^−6 M), 96.7%. The inhibition at 0.1 µM is 99.9% at hNK2 receptor [1] (test compound 10^−7 M) and 100% on hNK2 receptor [2] (test compound 10^−7 M). In addition, the values for the inhibition at 0.01 µM on hNK2 receptor [1] (test compound 10^−8 M) and at hNK2 receptor [2] (test compound 10^−8 M) were 93.8% and 81.9%, respectively.
